# According to US20260306460A1, “COMPOSITION FOR REMOVING AND INHIBITING SENESCENT CELLS, AND USES THEREOF” (LIFECEUTIX CO., LTD., priority 2023, published 2026):
# B1: Evolocumab (antibody, chains of the INN, looked up, V domains shown)
# VH: EVQLVQSGAEVKKPGASVKVSCKASGYTLTSYGISWVRQAPGQGLEWMGWVSFYNGNTNYAQKLQGRGTMTTDPSTSTAYMELRSLRSDDTAVYYCARGYGMDVWGQGTTVTVSS
# VL: ESALTQPASVSGSPGQSITISCTGTSSDVGGYNSVSWYQQHPGKAPKLMIYEVSNRPSGVSNRFSGSKSGNTASLTISGLQAEDEADYYCNSYTSTSMVFGGGTKLTVL
# notes: CAS 1256937-27-5
# What was measured:
# [1] = system: HMGN1 secreted from senescent A549 cells; assay: HMGN1 secretion (ELISA) from senescent A549 cells, Example 18, Table 14; format: cell-based, human; settings: doxorubicin-senescent A549, without test compound (DMSO) = 100%; 30 μM (LX-5211, LX-5433, LX-6530, LX-6800, LX-9105, LX-9118, LX-9131, LX-9136, LX-9302, LX-9321, LX-9565, LX-9602 at 90 μM; LX-9336 at 2.4 mM)
# Procedure: On the other hand, in cancer cells treated with doxorubicin, where senescence was induced, the amount of HMGN1 measured under conditions where cells were not treated with the test compound was calculated as 100%, and the amount of HMGN1 was measured under conditions where the senescent cancer cells were treated with the test compound.
# [2] = system: senescent A549 cells; assay: Viability of senescent A549 cells (CellTiter-Glo), Example 18, Table 15; settings: for Survival (%): doxorubicin-induced senescent A549 cells, 0 μM = 100%
# Procedure: Senescence-induced cancer cells treated with doxorubicin were treated with the test compound at designated concentrations, and cell viability was measured using the CellTiter-Glo Luminescent Cell Viability Assay (Promega).
# [3] = system: HMGN1 secreted from senescent cells; assay: HMGN1 secretion (ELISA) from doxorubicin-induced senescent cells, Example 17; format: cell-based, human; settings: senescent untreated = 100%; 30 μM; 90 μM for LX-5211, 5433, 6530, 9105, 9118, 9321, 9602; 2.4 mM for LX-9336
# [4] = system: senescent cells; assay: Viability of senescent cells (CellTiter-Glo), Example 17, Table 13; settings: for Survival (%): doxorubicin-induced senescent cells, 0 μM = 100
# Procedure: Cells induced to undergo senescence by doxorubicin treatment were treated with test compound at designated concentrations and measured using the CellTiter-Glo Luminescent Cell Viability Assay (Promega).
# [5] = system: naturally aged C57BL6J mice; assay: Geriatric depression and anxiety in aged mice, Example 21-8; format: in vivo, mouse; settings: aged mice
# Text: The amount of senescent-associated secretory factor (SASP) in serum and tissues collected from mice of Examples 21-5 and 21-6 was reduced by treatment with LX-5701, LX-2101, or LX-2102. It was confirmed that removing senescent cells, which increase with aging in mice, and effectively reducing the amount of senescent-associated secretory factor (SASP) can improve symptoms of geriatric depression and anxiety.
# [6] = system: obesity-induced aged C57BL6J mice; assay: Anxiety, depression, lethargy (open field test) in obesity-aged mice, Example 23-4, Table 44; format: in vivo, mouse; settings: obesity-aged mice
# Procedure: 15-week-old male C57BL6J mice (The Jackson Laboratory) were induced to obesity by a high-fat diet using the same method as in Example 9-1 WO2023-085787 A1. After acclimation to the experimental environment for one week, the mice were randomly assigned to experimental and control groups. […] LX-3002 was mixed in distilled water with 4% DMSO, 30% PEG300, and 5% Tween80 and administered orally at a concentration of 10 mg/kg daily for 21 days. LX-5701 was mixed in PBS and administered orally at a concentration of 360 mg/kg daily for 21 days. LX-6807 was mixed in saline and administered intraperitoneally at a concentration of 1 mg/kg daily for 21 days. The control group received only the solution in the same volume. After the end of drug administration, the methods described in each example below were performed.
# It was determined that anxiety and depression caused by obesity are not causally related to increased body weight, but rather are caused by the accumulation of senescent cells. Accordingly, an activity assessment (open field test) was performed using the same method as in Example 7-7 of WO2023-085787 A1 to analyze lethargy caused by anxiety and depression caused by obesity in mice. The table below quantitatively represents activity, a criterion for assessing lethargy due to anxiety and depression, under conditions in which aging was induced by obesity and the test compound was not administered or was administered. The activity assessment after obesity-induced aging was calculated as 100% and compared with the activity assessment after test compound treatment.
# [7] = system: naturally aged mice; assay: Anti-aging evaluation in naturally aged mice, Example 31, Table 55; format: in vivo, mouse; settings: for Femur Ctsk mRNA / Kidney Agtr1a mRNA / Liver IL6 mRNA / Liver MMP3 mRNA / Liver p16 mRNA / Open Field Test Time in Center: untreated = 100%; for Heart Sur2a mRNA / Joint Col2a1 mRNA / Skin Col1a1 mRNA / Skin SDF1 mRNA: untreated = 1.0; for Muscle Mass: untreated 0.64 g; for Fat Mass: untreated 0.82 g; for Cataract incidence: untreated 83%;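 as to all read-outs here: Vehicle-dosed control mice received solution alone at matching volume, values compare test-compound-treated aged mice against that control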
# Procedure: After the end of drug administration, the method described in each example below was performed. […] The mRNA amounts of p16, MMP3, and IL6 after natural aging was induced were calculated as 100% and compared with the mRNA amounts of p16, MMP3, and IL6 after treatment with the test compound. In addition, an open field test for the analysis of aging-related frailty, agtr1a mRNA analysis for kidney damage and disease evaluation, col1a1 and SDF1 mRNA analysis for skin aging evaluation such as wrinkles/loss of elasticity/hyperpigmentation, col2a1 mRNA analysis for evaluating joint aging such as osteoarthritis, sur2a mRNA analysis for evaluating cardiac aging such as decreased cardiac load resistance, ctsk mRNA analysis for evaluating bone diseases due to aging such as osteoporosis, muscle tissue weight for analyzing sarcopenia, fat tissue weight for analyzing lipoatrophy, and cataract incidence analysis were performed in mice. For cataract incidence analysis, the drug was administered twice a week under the conditions specified above, and biweekly examinations were conducted until death.
# [8] = system: carbon tetrachloride-induced liver fibrosis mice; assay: Carbon tetrachloride-induced liver fibrosis mice, Example 31, Table 57; format: in vivo, mouse; settings: CCl4-induced liver fibrosis mice, untreated = 100%
# Method in brief: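 Mice with induced hepatic fibrosis received either the test compound or, as controls, an equal volume of vehicle solution alone. Once dosing ended, liver tissue was harvested and total RNA was isolated. cDNA was synthesized from this RNA, and quantitative RT-PCR was run on it to measure hepatic mRNA levels of the fibrosis- and senescence-related genes.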
# [9] = system: bleomycin-induced pulmonary fibrosis mice; assay: Bleomycin-induced pulmonary fibrosis mice, Example 31, Table 56; format: in vivo, mouse; settings: untreated = 100%
# Method in brief: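 After treatment with test compound or vehicle alone, lungs of bleomycin-induced pulmonary fibrosis mice were harvested. Total RNA extracted and gene expression quantified by qRT-PCR.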
# [10] = Homo sapiens, A549, read-out: Survival (%)
# [11] = Homo sapiens, read-out: Survival (%)
molecule,measurement,setting,value
"CC(=O)[O-].CC(=O)[O-].CCc1c(CC)c2cc3nc(cnc4cc(OCCOCCOCCOC)c(OCCOCCOCCOC)cc4ncc4nc(cc1[n-]2)C(CCCO)=C4C)C(C)=C3CCCO.O.[Gd+3] [LX-5211, Motexafin Gadolinium]",HMGN1,[1],262%
same,Survival (%),[2]; 1.1 μM,102.8%
same,Survival (%),[2]; 10 μM,88.1%
same,Survival (%),[2]; 30 μM,49.2%
same,Survival (%),[2]; 90 μM,16.6%
same,Survival (%),[2]; […],98.8%
same,HMGN1,[3],253%
same,Survival (%),[4]; 1.1 μM,97.6%
same,Survival (%),[4]; 10 μM,92.7%
same,Survival (%),[4]; 30 μM,87.1%
same,Survival (%),[4]; 90 μM,22.7%
same,Survival (%),[4]; […],95.2%
"CN1CCc2c(c3ccccc3n2Cc2ccc(C(=O)NO)cc2)C1 [LX-5352, Tubastatin A]",HMGN1,[1],210%
same,Survival (%),[2]; 1.1 μM,97.6%
same,Survival (%),[2]; 10 μM,51.8%
same,Survival (%),[2]; 30 μM,22.2%
same,Survival (%),[2]; […],87.5%
same,HMGN1,[3],194%
same,Survival (%),[4]; 1.1 μM,87.9%
same,Survival (%),[4]; 10 μM,32.4%
same,Survival (%),[4]; 30 μM,1.9%
same,Survival (%),[4]; […],61.6%
"CN(CC(=O)Nc1nc2ccc(OC(F)(F)F)cc2s1)C(=O)CNC(=O)CN [LX-6216, Troriluzole]",HMGN1,[1],237%
same,Survival (%),[2]; 1.1 μM,93.8%
same,Survival (%),[2]; 10 μM,53.1%
same,Survival (%),[2]; 30 μM,14.6%
same,Survival (%),[2]; […],87.5%
same,HMGN1,[3],221%
same,Survival (%),[4]; 1.1 μM,94.5%
same,Survival (%),[4]; 10 μM,68.8%
same,Survival (%),[4]; 30 μM,24.3%
same,Survival (%),[4]; […],87.5%
"Nc1cc(COc2c(Cl)cc(C[C@H](N)C(=O)O)cc2Cl)c2oc(-c3ccccc3)nc2c1 [LX-6233, Nanvuranlat]",HMGN1,[1],228%
same,Survival (%),[2]; 1.1 μM,91.8%
same,Survival (%),[2]; 10 μM,34.5%
same,Survival (%),[2]; 30 μM,10.1%
same,Survival (%),[2]; […],72.4%
same,HMGN1,[3],241%
same,Survival (%),[4]; 1.1 μM,83.7%
same,Survival (%),[4]; 10 μM,32.7%
same,Survival (%),[4]; 30 μM,11.3%
same,Survival (%),[4]; […],61.2%
"Cc1nc(C(=O)NCC(=O)O)c(O)c2ccc(Oc3ccccc3)cc12 [LX-6806, Roxadustat]","amount of SASP, p16, SA-β-gal, lipofuscin",[5],reduced
same,symptoms of geriatric depression and anxiety,[5],improved
same,geriatric depression,[6],similarly improving geriatric depression
same,viability at 1.1 µM,[2]; [10],106%
same,viability at 10 µM,[2]; [10],67.2%
same,viability at 30 µM,[2]; [10],23.5%
same,viability at 1.1 µM,[4]; [11],95.4%
same,viability at 10 µM,[4]; [11],61.2%
same,viability at 30 µM,[4]; [11],32.8%
O=C1C2=C(CCN(Cc3ccccc3)C2)N2CCN=C2N1Cc1ccc(C(F)(F)F)cc1 [LX-7263],HMGN1,[1],283%
same,Survival (%),[2]; 1.1 μM,53.6%
same,Survival (%),[2]; […],11.1%
same,HMGN1,[3],267%
same,Survival (%),[4]; 1.1 μM,49.2%
same,Survival (%),[4]; […],0.9%
"Nc1ccc(O)c(C(=O)O)c1 [LX-9118, 5-aminosalicylic acid]","amount of SASP, p16, SA-β-gal, lipofuscin",[5],reduced
same,symptoms of geriatric depression and anxiety,[5],improved
same,Femur Ctsk mRNA,[7],75%
same,Heart Sur2a mRNA,[7],1.7 fold
same,Joint Col2a1 mRNA,[7],1.8 fold
same,Kidney Agtr1a mRNA,[7],71%
same,Liver IL6 mRNA,[7],62%
same,Liver MMP3 mRNA,[7],83%
same,Liver p16 mRNA,[7],74%
same,Open Field Test Time in Center,[7],199%
same,Skin Col1a1 mRNA,[7],1.9 Fold
same,Skin SDF1 mRNA,[7],1.8 fold
same,Muscle Mass,[7],0.73 g
same,Fat Mass,[7],0.88 g
same,Cataract incidence,[7],62%
same,Liver p16 mRNA,[8],69 (±2.4) %
same,Col1a1 mRNA,[8],64 (±2.0) %
same,geriatric depression,[6],similarly improving geriatric depression
same,viability at 1.1 µM,[2]; [10],105%
same,viability at 10 µM,[2]; [10],81.7%
same,viability at 30 µM,[2]; [10],51.2%
same,viability at 90 µM,[2]; [10],3.4%
same,viability at 1.1 µM,[4]; [11],102%
same,viability at 10 µM,[4]; [11],94.1%
same,viability at 30 µM,[4]; [11],62.8%
same,viability at 90 µM,[4]; [11],4.9%
same,Lung p16 mRNA,[9],76 (±4.6) %
same,Col1a1 mRNA,[9],58 (±3.5) %
"CCCCCC/C=C\CCCCCCCCCC(=O)N[C@H]1[C@H](OC[C@H]2O[C@H](OP(=O)([O-])[O-])[C@H](NC(=O)CC(=O)CCCCCCCCCCC)[C@@H](OCCCCCCCCCC)[C@@H]2O)O[C@H](COC)[C@@H](OP(=O)([O-])[O-])[C@@H]1OCC[C@@H](CCCCCCC)OC.[Na+].[Na+].[Na+].[Na+] [LX-9136, Eritoran tetrasodium]",HMGN1,[1],296%
same,Survival (%),[2]; 1.1 μM,91.1%
same,Survival (%),[2]; 10 μM,70.9%
same,Survival (%),[2]; 30 μM,44.8%
same,Survival (%),[2]; 90 μM,6.7%
same,Survival (%),[2]; […],83.4%
same,HMGN1,[3],263%
same,Survival (%),[4]; 1.1 μM,84.6%
same,Survival (%),[4]; 10 μM,71.1%
same,Survival (%),[4]; 30 μM,23.1%
same,Survival (%),[4]; […],76.9%
"CN(C)c1cccc(-c2c3c(=O)n(-c4ccccc4Cl)[nH]c3cc(=O)n2C)c1 [LX-9744, Setanaxib]","amount of SASP, p16, SA-β-gal, lipofuscin",[5],reduced
same,symptoms of geriatric depression and anxiety,[5],improved
same,Femur Ctsk mRNA,[7],57%
same,Heart Sur2a mRNA,[7],2.3 fold
same,Joint Col2a1 mRNA,[7],2.4 fold
same,Kidney Agtr1a mRNA,[7],65%
same,Liver IL6 mRNA,[7],58%
same,Liver MMP3 mRNA,[7],49%
same,Liver p16 mRNA,[7],75%
same,Open Field Test Time in Center,[7],171%
same,Skin Col1a1 mRNA,[7],2.3 Fold
same,Skin SDF1 mRNA,[7],1.7 fold
same,Muscle Mass,[7],0.69 g
same,Fat Mass,[7],0.84 g
same,Cataract incidence,[7],78%
same,Liver p16 mRNA,[8],71 (±3.1) %
same,Col1a1 mRNA,[8],48 (±3.5) %
same,geriatric depression,[6],similarly improving geriatric depression
same,viability at 1.1 µM,[2]; [10],91.8%
same,viability at 10 µM,[2]; [10],73.5%
same,viability at 30 µM,[2]; [10],25.8%
same,viability at 1.1 µM,[4]; [11],101%
same,viability at 10 µM,[4]; [11],69.8%
same,viability at 30 µM,[4]; [11],22.3%
same,Lung p16 mRNA,[9],73 (±3.1) %
same,Col1a1 mRNA,[9],64 (±3.3) %
Dazdotuftide [LX-9601],HMGN1,[1],209%
same,Survival (%),[2]; 1.1 μM,92.2%
same,Survival (%),[2]; 10 μM,69.1%
same,Survival (%),[2]; 30 μM,15.0%
same,Survival (%),[2]; […],89.0%
same,Survival (%),[4]; 1.1 μM,96.9%
same,Survival (%),[4]; 10 μM,78.8%
same,Survival (%),[4]; 30 μM,30.2%
same,Survival (%),[4]; […],89.8%
Mirvetuximab [LX-7622],Survival (%),[2]; 1.1 μM,88.6%
same,Survival (%),[2]; 10 μM,71.1%
same,Survival (%),[2]; 30 μM,4.3%
same,Survival (%),[2]; […],81.0%
same,HMGN1,[3],293%
same,Survival (%),[4]; 1.1 μM,99.1%
same,Survival (%),[4]; 10 μM,75.7%
same,Survival (%),[4]; 30 μM,17.7%
same,Survival (%),[4]; […],94.1%
B1,HMGN1,[1],291%
same,Survival (%),[2]; 1.1 μM,97.5%
same,Survival (%),[2]; 10 μM,43.2%
same,Survival (%),[2]; 30 μM,5.3%
same,Survival (%),[4]; 1.1 μM,93.9%
same,Survival (%),[4]; 10 μM,58.2%
same,Survival (%),[4]; 30 μM,18.5%
same,Survival (%),[4]; […],87.6%
